Measured values as given in ChEMBL document CHEMBL1130802, “Design and synthesis of a new type of non steroidal human aromatase inhibitors” (Bioorg Med Chem Lett, 1998).

Key:
[1] = target: T1, Aromatase (Homo sapiens, UniProt P11511)
T1 sequence (P11511 whole entry): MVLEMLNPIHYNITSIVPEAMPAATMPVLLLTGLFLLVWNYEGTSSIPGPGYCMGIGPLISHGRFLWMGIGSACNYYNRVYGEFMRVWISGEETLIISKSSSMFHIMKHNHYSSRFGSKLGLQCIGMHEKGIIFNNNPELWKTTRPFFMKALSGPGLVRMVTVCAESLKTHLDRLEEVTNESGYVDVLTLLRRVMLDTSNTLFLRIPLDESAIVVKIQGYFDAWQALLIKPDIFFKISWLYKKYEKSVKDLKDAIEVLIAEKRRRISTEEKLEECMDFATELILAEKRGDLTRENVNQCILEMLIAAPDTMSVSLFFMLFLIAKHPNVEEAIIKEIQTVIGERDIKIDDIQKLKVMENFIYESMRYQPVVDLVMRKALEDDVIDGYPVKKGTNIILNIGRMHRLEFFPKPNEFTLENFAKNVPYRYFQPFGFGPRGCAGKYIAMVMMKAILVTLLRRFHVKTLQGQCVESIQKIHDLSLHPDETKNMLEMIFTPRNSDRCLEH
Description: Inhibition constant for human aromatase cytochrome P450 19A1 activity

[2] = target: T1, Aromatase; remark: listed apart in the source
Description: Inhibition of human aromatase cytochrome P450 19A1 activity

O=C1/C(=C\c2ccncc2)C(c2ccccc2)c2ccccc21 (configuration not stated)
Ki [1]: 0.0103 µM
IC50 [2]: 0.8 µM
